Data: patent US4469686A, “Substituted phosphinic acids” (priority 1980, dated 1984)

Experiments:
mice = experiment: Acute toxicity studies in mice; format: in vivo; conditions: i.p.
Experimental: Acute toxicity studies in mice have shown that the minimum single dose to cause death is >2400 mg/kg i.p. for compound B and ≤400 mg/kg i.p. for DL-penicillamine.

[1] = Test for cupriuretic activity; format: in vivo; conditions: at 1 mM/kg
Source text: (B) Test for cupriuretic activity:
This test is relevant to Wilson's disease. The method followed is the method of K. GIBBS and J. M. WALSHE (Clinical Science and Molecular Medicine, 1977, 53, 317-20).

[2] = Test for catalytic dismutation of superoxide; format: biochemical; conditions: test compound: copper glycine ratio of 4:1; read-out: Catalysis of superoxide dismutation, I50
Source text: (A) Test for catalytic dismutation of superoxide:
This test is relevant to degenerative joint disease and inflammation. The method followed is the method of M. YOUNES and U. WESER [Biochem.Biophys.Res.Commun. 1977, 78 (4) 1247-53] using a test compound: copper glycine ratio of 4:1.

Structure (SMILES) | minimum single dose to cause death (mice) [mg/kg] | Cupriuretic activity, % Increase [1] [%] | IC50 [2] [µM]
CC(C)(S)C(N)[PH](=O)O (racemic) [Compound B, DL-(1-Amino-2-mercapto-2-methylpropyl)phosphinic acid] | > 2400 | 397 | 1.2
CC(C)(S)C(N)C(=O)O (racemic) [DL-penicillamine, reference compound] | ≤ 400 | – | –
CC(C)(S)C(N)P(=O)(O)O (racemic) [Compound A, DL-(1-Amino-2-mercapto-2-methylpropyl)phosphonic acid] | – | 139 | 1.2
CC1(C)NC([PH](=O)O)C(C)(C)S1 (racemic) [Compound D, DL-(2,2,5,5-Tetramethyl-4-thiazolidinyl)phosphinic acid] | – | 308 | –
CC1(C)NC(P(=O)(O)O)C(C)(C)S1 (racemic) [Compound C, DL-2,2,5,5-Tetramethyl-4-thiazolidinyl)phosphonic acid] | – | 122 | –
